# In US12485179B2, “Cholecystokinin B receptor targeting for imaging and therapy” (Purdue Research Foundation, priority 2012, dated 2025):
# Assays:
# [1] = target: T1, CCK2R (Homo sapiens, UniProt P32239); test: Binding of 99mTc conjugates to HEK-293 CCK2R cells (cell bound radioactivity); parameters: expressed in transfected cells; host or cells: HEK-293, G418-selected, from Dr. Mark Hellmich (University of Texas at Galveston)
# T1 sequence (P32239 1-447): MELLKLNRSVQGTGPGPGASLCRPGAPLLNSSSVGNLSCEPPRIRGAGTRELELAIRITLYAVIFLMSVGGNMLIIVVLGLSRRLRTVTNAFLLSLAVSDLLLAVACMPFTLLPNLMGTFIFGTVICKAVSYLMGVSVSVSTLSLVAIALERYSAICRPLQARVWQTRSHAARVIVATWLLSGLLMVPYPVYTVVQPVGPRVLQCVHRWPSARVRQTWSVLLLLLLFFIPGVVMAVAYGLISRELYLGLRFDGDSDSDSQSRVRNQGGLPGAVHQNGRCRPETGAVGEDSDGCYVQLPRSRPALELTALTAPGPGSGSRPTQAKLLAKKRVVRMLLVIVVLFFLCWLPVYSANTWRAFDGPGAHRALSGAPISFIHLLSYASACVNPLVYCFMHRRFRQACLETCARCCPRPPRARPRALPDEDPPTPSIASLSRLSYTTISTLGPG
# Experimental: (§1) CRL-1, CRL-2, CRL-3 and CRL-4 were chelated to ^99mTc and tested for binding using two transfected cell lines of HEK-CCK2R (HEK-293 CCK2R) and HEK-CCK2R splice cell line (HEK CCK2i4svR), obtained from Dr. Mark Hellmich (University of Texas at Galveston). Cells were cultured in Dulbecco's modified Eagles (Gibco) supplemented with 10% Fetal Bovine Serum and G418 disulfate (SIGMA; 400 μg/ml), 1% penicillin/streptomycin at 37° C. in a humidified 95% air, 5% CO2 atmosphere.
# (§2) Competition studies were performed using 100 fold excess of free Z-360 containing corresponding peptide linker and no chelating moiety. HEK 293 CCK2R and HEK CCK2i4svR were seeded onto 24 well plates and allowed to become confluent over 48-72 hours. Spent medium in each well was replaced with 0.5 ml fresh media containing 0.5% BSA and increasing concentrations of the test article. After incubating for 1 h at 37° C. cells were rinsed with incubation solution (2×1.0 ml) to remove any unbound radioactivity. Cells were then resuspended on 0.5 ml 0.25N NaOH and cell radioactivity was counted using a γ-counter. The dissociation constant (KD) was calculated using a plot of cell bound radioactivity versus the concentration of the radiotracer using Graphpad Prism 4 and assuming a non-cooperative single site binding equilibrium.
# [2] = target: T2, CCK2i4svR (Homo sapiens, UniProt P32239); test: Binding of 99mTc conjugates to HEK CCK2i4svR cells (cell bound radioactivity)
# T2 construct: expressed in transfected cells; host or cells: HEK-293, G418-selected, from Dr. Mark Hellmich (University of Texas at Galveston)
# T2 sequence (P32239 1-516 isoform P32239-2): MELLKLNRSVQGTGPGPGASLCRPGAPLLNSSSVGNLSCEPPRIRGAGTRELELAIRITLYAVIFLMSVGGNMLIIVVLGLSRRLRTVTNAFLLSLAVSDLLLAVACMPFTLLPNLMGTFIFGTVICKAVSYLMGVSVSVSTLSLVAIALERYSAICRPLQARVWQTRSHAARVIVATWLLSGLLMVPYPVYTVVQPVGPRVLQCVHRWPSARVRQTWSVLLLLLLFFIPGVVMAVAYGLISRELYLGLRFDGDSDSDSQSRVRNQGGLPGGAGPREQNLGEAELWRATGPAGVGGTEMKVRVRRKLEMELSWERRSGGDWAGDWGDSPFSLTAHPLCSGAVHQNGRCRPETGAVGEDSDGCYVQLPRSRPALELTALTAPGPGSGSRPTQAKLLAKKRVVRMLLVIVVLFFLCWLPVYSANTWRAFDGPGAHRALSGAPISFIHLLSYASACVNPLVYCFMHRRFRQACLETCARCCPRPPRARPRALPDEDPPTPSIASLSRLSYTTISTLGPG
# Experimental: as §1, §2
# [3] = test system: HEK CCK2i4svR tumors; test: In vivo radio-imaging and bio-distribution, HEK CCK2i4svR tumor xenografts; parameters: species or system nu/nu mice
# Experimental: In order to test the in vivo specificity of CRL-3 chelated with ^99mTc, HEK CCK2R and CCK2i4svR subcutaneous tumors were produced in nude mice according to known methods. Athymic female nu/nu mice were purchased from Harlan Laboratories and maintained on normal rodent chow and housed in a sterile environment on a standard 12 hour light and dark cycle for the duration of the study. All animal procedures were approved by the Purdue Animal Care and Use Committee in accordance with NIH guidelines.
# 150 microcurie of CRL-3 ^99mTc was injected intravenously into each mouse. FIGS. 3A-B show an overlay of whole-body radio-images on white light photographs of mice bearing images of HEK CCK2R (a, b) and HEK CCKRi4sv (c, d) tumor xenografts in nu/nu mice two hours after the administration of CRL-3 ^99mTc. Kidneys were shielded with a lead plate. Mice a and c had the radioactive conjugate administered along with 100 fold of free unlabeled targeting ligand. In mice b and d, only the radio-conjugate CRL-3 ^99mTc was administered. Arrows indicate location of the tumor.
# Following the above radio-imaging studies, animals were dissected and selected organs/tissues were collected into pre-weighed γ-counter tubes. Radioactivity of weighed tissues and test compounds were counted in a γ-counter. CPM values were decay corrected and results were calculated as % injected dose per gram of wet tissue (% ID/g). […]
structure (smiles),measurement,setting,value
CC(C)(C)C(=O)CN1C(=O)[C@H](NC(=O)Nc2cccc(C(=O)NCCCCCCCC(=O)N[C@H](CCC(=O)O)C(=O)N[C@H](CCC(=O)NC[C@H](O)[C@@H](O)[C@H](O)[C@H](O)CO)C(=O)N[C@H](CCC(=O)O)C(=O)N[C@H](CCC(=O)NC[C@H](O)[C@@H](O)[C@H](O)[C@H](O)CO)C(=O)NC[C@@H]3[NH][99Tc]45[S]C[C@@H](C(=O)O)[N]4C(=O)[C@H](CC(=O)O)[N]5C3=O)c2)CN(C2CCCCC2)c2ccccc21 (stereo partly shown) [CRL-3 ^99mTc],Kd,[1],30 nM
same,Kd,[2],4 nM
same,"accumulation of radio-conjugate, whole-body radio-image","[3]; 150 microcurie i.v., two hours after administration, kidneys shielded",accumulated mainly in the receptor expressing tumor with little or no accumulation in other tissues except the kidney
same,bio-distribution of radiotracer in organs/tissues,"[3]; after radio-imaging, n=5 mice/group",only the tumor and kidneys show excessive accumulation of radiotracer
